In US12552753B2, “Methods and compositions for targeting Tregs using CCR8 inhibitors” (Nanjing Immunophage Biomedical Co., Ltd., priority 2020, dated 2026):
Counter-ions that a name gives are not always drawn.

Each compound was assayed against CCR8 (Homo sapiens, UniProt P51685) (assay: Tango assay (Tango-CCR8-Gal4-CHO-K1 cells, CCL1-stimulated, ONE-Glo luminescence)). Conditions: Tango Assay IC50, Inhibition of CCR8 Tango cell in vitro.
CCR8, sequence (P51685 whole entry, the tested form may be a part): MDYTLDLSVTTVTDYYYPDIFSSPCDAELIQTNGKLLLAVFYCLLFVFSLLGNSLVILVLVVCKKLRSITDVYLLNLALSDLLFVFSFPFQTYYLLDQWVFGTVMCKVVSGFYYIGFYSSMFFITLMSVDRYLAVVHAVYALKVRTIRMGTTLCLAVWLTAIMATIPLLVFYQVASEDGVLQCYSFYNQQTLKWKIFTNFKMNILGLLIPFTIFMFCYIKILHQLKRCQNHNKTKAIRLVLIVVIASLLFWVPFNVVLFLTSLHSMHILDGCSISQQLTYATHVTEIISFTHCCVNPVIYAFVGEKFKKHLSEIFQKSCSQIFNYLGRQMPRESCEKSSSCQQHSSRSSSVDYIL

Structure (SMILES)	IC50 [nM]
Cc1ccccc1C(=O)Nc1ccc(S(=O)(=O)NC(C)CC2CCNCC2)c2ccccc12 (stereo not drawn) [Compound 126, 2-methyl-N-(4-(N-(1-(piperidin-4-yl)propan-2-yl)sulfamoyl)naphtha-len-1-yl)benzamide]	133
Cc1ccccc1NC(=O)c1ccc(S(=O)(=O)N[C@H](C)C2CCN(C(=O)OC(C)(C)C)CC2)cc1C [Compound 112, (R)-tert-butyl 4-(1-(3-methyl-4-(o-tolylcarbamoyl)phenyl-sulfonamido)ethyl)piperi-dine-1-carboxylate]	> 10000
CC(C)(C)OC(=O)N1CCC(NS(=O)(=O)c2ccc(-c3nc4ccccc4[nH]3)cc2)CC1 [Compound 102, tert-butyl 4-(4-(1H-benzo[d]imidazol-2-yl)phenylsulfonamido) piperidine-1-carboxylate]	> 10000
COC(=O)CN1CCC([C@@H](C)NS(=O)(=O)c2ccc(NC(=O)c3ccccc3C)c(C)c2)CC1 [Compound 248, methyl(R)-2-(4-(1-((3-methyl-4-(2-methylbenzamido)phenyl)sulfonamido)ethyl)piperidin-1-yl)acetate]	105
COC(=O)CN1CCCCC1C(C)NS(=O)(=O)c1ccc(NC(=O)c2ccccc2C)c2ccccc12 (single isomer, unassigned) [Compound 70A, methyl 2-(2-(1-(4-(2-methylbenzamido)naph-thalene-1-sulfonamido)ethyl)piper-idin-1-yl)acetate]	116
COc1cc2c(cc1NS(=O)(=O)c1ccc(NC(=O)c3ccccc3C)c3ccccc13)N(C(C)=O)CC2 [Compound 39, N-(4-(N-(1-acetyl-5-methoxyindolin-6-yl)sulfamoyl)naphthalen-1-yl)-2-methylbenzamide]	> 10000
Cc1ccccc1C(=O)Nc1ccc(S(=O)(=O)NC(C)C2CC3CCC2CC3)c2ccccc12 (stereo not drawn) [Compound 77, N-(4-(N-(1-(bicyclo[2.2.2]octan-2-yl)ethyl)sulfamoyl)naph-thalen-1-yl)-2-methylbenzamide]	0.4
COC(=O)[C@@H](NS(=O)(=O)c1ccc(NC(=O)c2ccccc2C)c2ccccc12)C1CCCCC1 [Compound 49, (S)-methyl 2-cyclohexyl-2-(4-(2-methylbenzamido)naph-thalene-1-sulfonamido)acetate]	520
Cc1cc(S(=O)(=O)N[C@H](C)C2CCNCC2)ccc1NC(=O)C(C)(C)C [Compound 209A, (R)-N-(2-methyl-4-(N-(1-(piperidin-4-yl)ethyl)sulfamoyl)phenyl)pivalamide hydrochloride]	1100
Cc1cc(S(=O)(=O)NC(C)C(C)(C)CN(C)C)ccc1NC(=O)c1ccccc1C (stereo not drawn) [Compound 294, N-(4-(N-(4-(dimethylamino)-3,3-dimethylbutan-2-yl)sulfamoyl)-2-methylphenyl)-2-methylbenzamide hydrochlroide, hydrochloride]	> 100000
Cc1ccccc1C(=O)Nc1cc(F)c(S(=O)(=O)N[C@@H](C)C2CCNCC2)cc1Cl [Compound 242B, (S)-N-(2-chloro-5-fluoro-4-(N-(1-(piperidin-4-yl)ethyl)sulfamoyl)phenyl)-2-methylbenzamide hydrochloride]	> 100000
CC(=O)N1CCOC(C(C)NS(=O)(=O)c2ccc(NC(=O)c3ccccc3C)c3ccccc23)C1 (stereo not drawn) [Compound 86, N-(4-(N-(1-(4-acetylmorpholin-2-yl)ethyl)sulfamoyl)naph-thalen-1-yl)-2-methylbenzamide]	2300
Cc1ccccc1C(=O)Nc1ccc(S(=O)(=O)NC(C)C2CCN(C(=O)OC(C)(C)C)CC2)c2ccccc12 (stereo not drawn) [Compound 60, tert-butyl 4-(1-(4-(2-methylbenzamido)naph-thalene-1-sulfonamido)ethyl)piper-idine-1-carboxylate]	160
CCCC(=O)N1CCC(NS(=O)(=O)c2ccc(N)cc2)CC1 [Compound 119, 4-amino-N-(1-butyrylpiperidin-4-yl)benzenesulfonamide]	> 10000
Cc1ccccc1C(=O)Nc1ccc(S(=O)(=O)NC23CC(C2)C3)c2ccccc12 [Compound 63, N-(4-(N-(bicyclo[1.1.1]pentan-1-yl)sulfamoyl)naphthalen-1-yl)-2-methylbenzamide]	> 10000
Cc1ccccc1C(=O)Nc1ccc(S(=O)(=O)N[C@H](C)C2CCNCC2)cc1Br [Compound 192A, (R)-N-(2-bromo-4-(N-(1-(piperidin-4-yl)ethyl)sulfamoyl)phen-yl)-2-methylbenzamide hydrochloride]	26
Cc1cc(S(=O)(=O)N[C@H](C)C2CCN(C(=O)OC(C)(C)C)CC2)ccc1NC(=O)c1ccccc1C [Compound 160, (R)-tert-butyl 4-(1-(3-methyl-4-(2-methylbenzamido)phen-ylsulfonamido)ethyl)piper-idine-1-carboxylate]	> 10000

Next, values leading:

IC50 [nM]	Structure (SMILES)
438	Cc1ccccc1C(=O)Nc1ncc(S(=O)(=O)N[C@H](C)C2CCNCC2)cc1C [Compound 199A, (R)-2-methyl-N-(3-methyl-5-(N-(1-(piperidin-4-yl)ethyl)sulfamoyl)pyridin-2-yl)benzamide hydrochloride]
61	Cc1cc(S(=O)(=O)N[C@H](C)C2CCN(CC(F)(F)F)CC2)ccc1NC(=O)c1ccccc1C [Compound 206, (R)-2-methyl-N-(2-methyl-4-(N-(1-(1-(2,2,2-trifluoroethyl)piperidin-4-yl)ethyl)sulfamoyl)phenyl)benzamide]
> 10000	Cc1ccccc1C(=O)Nc1ccc(S(=O)(=O)Nc2ccc3c(c2)CN(CCCN(C)C)C3)c2ccccc12 [Compound 35, N-(4-(N-(2-(3-(dimethylamino)propyl)isoindolin-5-yl)sulfamoyl)naphthalen-1-yl)-2-methylbenzamide]
12	Cc1ccccc1C(=O)Nc1ccc(S(=O)(=O)N[C@@H](C)C2CCCCC2)c2ccccc12 [Compound 58, (S)-N-(4-(N-(1-cyclohexylethyl)sulfamo-yl)naphthalen-1-yl)-2-methylbenzamide]
19	Cc1ccccc1C(=O)Nc1ccc(S(=O)(=O)NC2CCCc3ccccc32)c2ccccc12 (stereo not drawn) [Compound 28, 2-methyl-N-(4-(N-(1,2,3,4-tetrahydronaphthalen-1-yl)sulfamoyl)naphtha-len-1-yl)benzamide]
33	Cc1ccccc1C(=O)Nc1ccc(S(=O)(=O)NC(C)C(C)(C)C)c2ccccc12 (stereo not drawn) [Compound 82, N-(4-(N-(3,3-dimethylbutan-2-yl)sulfamoyl)naphthalen-1-yl)-2-methylbenzamide]
15	Cc1ccccc1C(=O)Nc1cc(F)c(S(=O)(=O)N[C@H](C)C2CCNCC2)cc1Cl [Compound 242A, (R)-N-(2-chloro-5-fluoro-4-(N-(1-(piperidin-4-yl)eth-yl)sulfamoyl)phen-yl)-2-methylbenzamide hydrochloride]
> 10000	Cc1ccccc1C(=O)Nc1ccc(S(=O)(=O)Nc2ccc3c(c2)C(N(C)CCN(C)C)CCC3)c2ccccc12 (stereo not drawn) [Compound 99, N-(4-(N-(8-((2-(dimethylamino)ethyl)(methyl)amino)-5,6,7,8-tetrahydronaphthalen-2-yl)sulfamoyl)naphthalen-1-yl)-2-methylbenzamide]
1	Cc1cc(S(=O)(=O)N[C@H](C)C2CCN(C)CC2)ccc1NC(=O)c1cc(Cl)ccc1C [Compound 272, (R)-5-chloro-2-methyl-N-(2-methyl-4-(N-(1-(1-methylpiperidin-4-yl)ethyl)sulfamoyl)phenyl) benzamide]
89	Cc1ccccc1C(=O)Nc1ccc(S(=O)(=O)NC2CCN(C)c3ccccc32)c2ccccc12 (stereo not drawn) [Compound 32, 2-methyl-N-(4-(N-(1-methyl-1,2,3,4-tetrahydroquinolin-4-yl)sulfamoyl)naphthalen-1-yl)benzamide]
1650	CCCC(=O)N1CCC(NS(=O)(=O)c2ccc(Nc3nccc(C)n3)c3ccccc23)CC1 [Compound 117, N-(1-butyrylpiperidin-4-yl)-4-((4-methylpyrimidin-2-yl)amino)naphthalene-1-sulfonamide]
> 10000	Cc1c(C(=O)O)cccc1S(=O)(=O)NC(C)C1CCCCC1 (stereo not drawn) [Compound 143, 3-(N-(1-cyclohexylethyl)sul-famoyl)-2-methylbenzoic acid]
> 10000	Cc1ccccc1C(=O)Nc1ccc(S(=O)(=O)NC(=O)c2cccc(N(C)C)c2)c2ccccc12 [Compound 10, N-(4-(N-(3-(dimethylamino)benzoyl)sulfamoyl)naphthalen-1-yl)-2-methylbenzamide]
> 100000	Cc1ccccc1C(=O)Nc1cc(Cl)c(S(=O)(=O)N[C@@H](C)C2CCN(C)CC2)cc1Cl [Compound 307, (S)-N-(2,5-dichloro-4-(N-(1-(1-methylpiperidin-4-yl)ethyl)sulfamoyl)phenyl)-2-methylbenzamide hydrochloride]
832	Cc1ccccc1C(=O)Nc1ccc(S(=O)(=O)NC(C)c2ccccc2N)c2ccccc12 (stereo not drawn) [Compound 124, N-(4-(N-(1-(2-aminophenyl)ethyl)sul-famoyl)naphthalen-1-yl)-2-methylbenzamide]
2300	Cc1cc(S(=O)(=O)N[C@H](C)C2CCN(C)CC2)ccc1NC(c1ccccc1)C(F)(F)F (stereo partly drawn) [Compound 300, 3-methyl-N-((R)-1-(1-methylpiperidin-4-yl)ethyl)-4-((2,2,2-trifluoro-1-phenylethyl)amino)benzene-sulfonamide]
40	Cc1cc(S(=O)(=O)N[C@H](C)C2CCNCC2)ccc1NC(=O)Cc1ccccc1 [Compound 207A, (R)-N-(2-methyl-4-(N-(1-(piperidin-4-yl)ethyl)sulfamoyl)phenyl)-2-phenylacetamide hydrochloride]
42	Cc1cc(S(=O)(=O)N[C@H](C)C2CCNCC2)ccc1NC(=O)c1ccccc1C [Compound 161A, (R)-2-methyl-N-(2-methyl-4-(N-(1-(piperidin-4-yl)ethyl)sulfamoyl)phen-yl)benzamide hydrochloride]

Same assay, conditions: read-out: Tango Assay IC50, Inhibition of CCR8 Tango cell in vitro

IC50 [nM]	Structure (SMILES)
112	Cc1ccccc1C(=O)Nc1ccc(S(=O)(=O)NC(C)C2CCCNC2)c2ccccc12 (stereo not drawn) [Compound 17, 2-methyl-N-(4-(N-(1-(piperidin-3-yl)ethyl)sulfamoyl)naph-thalen-1-yl)benzamide]
